Data reported in patent publication US20250250286A1, “FUSED PYRIMIDINE DERIVATIVES AS KRAS ONCOPROTEIN INHIBITORS” (BETA PHARMA, INC., priority 2021, published 2025).
Where a name gives a salt, the structure may show the parent alone.

Target: T1, KRAS G12D (Homo sapiens, UniProt P01116, G12D)
T1 construct: Recombinant human KRAS G12D (aa 2-169, expressed in E. coli); His-tag (TEV cleavable) (N); purchased Reaction Biology Corporation (RBC) SOS1: RBC cat #MSC-11-502; KRAS G12D: not given; host or cells: E. coli
T1 sequence (P01116 2-169 G12D): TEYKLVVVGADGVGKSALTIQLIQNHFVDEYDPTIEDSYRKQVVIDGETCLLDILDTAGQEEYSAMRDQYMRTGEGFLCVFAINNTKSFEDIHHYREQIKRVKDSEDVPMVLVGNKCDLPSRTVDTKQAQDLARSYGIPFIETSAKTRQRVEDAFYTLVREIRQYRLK
Assay: KRAS G12D/SOS1 Nucleotide Exchange Assay (SOS1-mediated Bodipy-GDP to GTP exchange)
Assay type: biochemical
Conditions: rate constant method (plateau = 0), Bodipy-GDP/KRAS G12D as substrate, 0.5% DMSO, 30 min pre-incubation at RT
Description: The compound pre-incubation time was 30 min at RT and the curve fits were performed when the activities at the highest concentration of compounds were less than 65%.
Reaction Buffer: 40 mM HEPES 7.4, 10 mM MgCl2, 1 mM DTT 0.002% Triton ×100, 0.5% DMSO.
KRAS is pre-loaded with a 5-fold excess of Bodipy-GDP. The excess Bodipy-GDP is separated from loaded protein using a spin desalting column.
• 1. Deliver 10 μL of 1.5× KRAS solution in freshly prepared reaction buffer to reaction wells. • 2. Deliver compounds in 100% DMSO into buffer using acoustic technology (Echo550; nanoliter range). • 3. Incubate compounds with KRAS for 30 minutes at room temperature. • 4. Prepare 3× (SOS1+GTP) solution in reaction buffer. • 5. Deliver 5 μL of SOS1+GTP solution into reactions wells (deliver GTP only to column 1 for no SOS1 control). • 6.
Data Analysis: The fluorescence data was normalized using the equation below and fitted to “one phase exponential decay” equation using GraphPad prism software. The plateau was fixed to zero (use for non-covalent inhibitors) and rate ×1000 was used to calculate the IC50 values.
[formula] • where Yraw is defined as fluorescence at time t, Ao is the average initial fluorescence with no SOS1, and M is the minimum fluorescence at the end of the reaction at the maximum SOS1.
The background subtracted signals (no SOS1 protein wells were used as background) were converted to % activity relative to DMSO controls. Data was analyzed using GraphPad Prism 4 with “sigmoidal dose-response (variable slope)”; 4 parameters with Hill Slope. The constraints were bottom (constant equal to 0) and top (must be less than 120).

IC50 [µM] | Compound
0.61 | Clc1cccc2cccc(-c3cnc4c(N5C[C@H]6CC[C@@H](C5)N6)nc(OCC56CCCN5CCC6)nc4c3)c12 [Example 1, 4-((1R,5S)-3,8-Diazabicyclo[3.2.1]octan-3-yl)-7-(8-chloronaphthalen-1-yl)-2-((tetrahydro-1H-pyrrolizin-7a(5H)-yl)methoxy)pyrido[3,2-d]pyrimidine hydrochloride (1:3)]
0.035 ± 0.0057 | Oc1cc(-c2cnc3c(N4C[C@H]5CC[C@@H](C4)N5)nc(OCC45CCCN4CCC5)nc3c2)c2ccccc2c1 [Example 2, 4-(4-((1R,5S)-3,8-Diazabicyclo[3.2.1]octan-3-yl)-2-((tetrahydro-1H-pyrrolizin-7a(5H)-yl)methoxy)pyrido[3,2-d]pyrimidin-7-yl)naphthalen-2-ol]
> 10 | CN1CCC[C@H]1COc1nc(N2C[C@H]3CC[C@@H](C2)N3)c2ccc(-c3cccc4cccc(Cl)c34)nc2n1 [Example 3, 4-((1R,5S)-3,8-Diazabicyclo[3.2.1]octan-3-yl)-7-(8-chloronaphthalen-1-yl)-2-(((S)-1-methylpyrrolidin-2-yl)methoxy)pyrido[2,3-d]pyrimidine]
8.6 | Clc1cccc2cccc(-c3ccc4c(N5C[C@H]6CC[C@@H](C5)N6)nc(OCC56CCCN5CCC6)nc4n3)c12 [Example 4, 4-((1R,5S)-3,8-diazabicyclo[3.2.1]octan-3-yl)-7-(8-chloronaphthalen-1-yl)-2-((tetrahydro-1H-pyrrolizin-7a(5H)-yl)methoxy)pyrido[2,3-d]pyrimidine]
0.028 | C#Cc1c(F)ccc2cc(O)cc(-c3cnc4c(N5C[C@H]6CC[C@@H](C5)N6)nc(OC[C@@]56CCCN5C[C@H](F)C6)nc4c3)c12 [Example 5, 4-(4-((1R,5S)-3,8-Diazabicyclo[3.2.1]octan-3-yl)-2-(((2R,7aS)-2-fluorotetrahydro-1H-pyrrolizin-7a(5H)-yl)methoxy)pyrido[3,2-d]pyrimidin-7-yl)-5-ethynyl-6-fluoronaphthalen-2-ol]
